Laboratory results from PMC6409085, “Three odorant-binding proteins are involved in the behavioral response of Sogatella furcifera to rice plant volatiles” (PeerJ, 2019).
Several values for one entry are separate records, joined by “and”; a condition that tells them apart may be missing. Equal entries are not always repeated.

What was measured:
SfurOBP2 = SfurOBP2 (Sogatella furcifera, UniProt V5T759); experiment: biochemical; type: binding
In short: (§1)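 In 50 mM Tris-HCl pH 7.4, odorants displace 1-NPN (2.0 µM) from 2.0 µM protein. Emission at 390–490 nm under 337 nm excitation is measured 2 min after competitor addition, in triplicate. Ki is obtained from IC50 and the 1-NPN dissociation constant.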

SfurOBP1 = SfurOBP1 (Sogatella furcifera, UniProt V5T8N5); experiment: biochemical; type: binding; conditions: for Fluorescence competitive binding assay, fluorescence intensity: OBP1, three replicate columns
Chain of SfurOBP1 (V5T8N5 entry or part of it): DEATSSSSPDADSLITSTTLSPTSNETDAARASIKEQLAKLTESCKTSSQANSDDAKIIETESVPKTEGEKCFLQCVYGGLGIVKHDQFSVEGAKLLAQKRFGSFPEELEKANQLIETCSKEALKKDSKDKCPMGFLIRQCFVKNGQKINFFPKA
In short: as §1

SfurOBP3 = SfurOBP3 (Sogatella furcifera, UniProt V5T818); experiment: biochemical; type: binding; conditions: for Fluorescence competitive binding assay, fluorescence intensity: OBP3, three replicate columns
Chain of SfurOBP3 (V5T818 entry or part of it): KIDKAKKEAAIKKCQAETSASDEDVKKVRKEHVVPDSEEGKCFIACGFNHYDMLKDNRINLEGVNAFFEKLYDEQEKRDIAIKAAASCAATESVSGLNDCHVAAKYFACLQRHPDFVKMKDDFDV
In short: as §1

SfurOBP11 = SfurOBP11 (Sogatella furcifera, UniProt V5T6E3); experiment: biochemical; type: binding
Chain of SfurOBP11 (V5T6E3 entry or part of it): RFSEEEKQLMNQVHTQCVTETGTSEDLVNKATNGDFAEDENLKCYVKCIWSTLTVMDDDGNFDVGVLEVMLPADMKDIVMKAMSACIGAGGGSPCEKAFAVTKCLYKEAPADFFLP
In short: as §1

S. furcifera adults = experiment: Y-tube olfactometer behavioral trials; type: in vivo, Sogatella furcifera; conditions: odorant 50 µL/L vs hexane
In short: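 Single S. furcifera adults (2 days post-emergence, starved 0.5 h) chose between odorant (100 µL of 50 µL/L on filter paper) and hexane control in a glass Y-tube, charcoal-filtered humidified air 300 mL/min per arm, 25 ± 1 °C, 50% RH. Choice scored if insect passed half an arm and stayed >1 min within 10 min; 45 insects per compound, chi-squared test.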

Chain of SfurOBP2 (V5T759 entry or part of it): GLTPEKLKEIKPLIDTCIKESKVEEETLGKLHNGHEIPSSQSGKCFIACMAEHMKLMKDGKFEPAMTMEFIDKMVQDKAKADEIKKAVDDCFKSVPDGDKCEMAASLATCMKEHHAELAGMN

In the case of `CCCCCCCC=O` [octanal], the IC50 (SfurOBP2; SfurOBP2, protein and 1-NPN both 2.0 µM, competitor 2-20 µM, read-out: IC50) is reported as over 20 µM, the “Fluorescence competitive binding assay, OBP2 (raw fluorescence reading)” value (SfurOBP2; ligand concentration 2 (unit not given), replicate column 1 of 3) is reported as 19179 and the “Fluorescence competitive binding assay, OBP2 (raw fluorescence reading)” value (SfurOBP2; ligand concentration 2 (unit not given), replicate column 2 of 3) is reported as 16653. For the same compound, the “Fluorescence competitive binding assay, OBP2 (raw fluorescence reading)” value (SfurOBP2; ligand concentration 2 (unit not given), replicate column 3 of 3) was 19027, the “Fluorescence competitive binding assay, OBP2 (raw fluorescence reading)” value (SfurOBP2; ligand concentration 4 (unit not given), replicate column 1 of 3) was 18170 and the “Fluorescence competitive binding assay, OBP2 (raw fluorescence reading)” value (SfurOBP2; ligand concentration 4 (unit not given), replicate column 2 of 3) was 19771. For the same compound, the “Fluorescence competitive binding assay, OBP2 (raw fluorescence reading)” value (SfurOBP2; ligand concentration 4 (unit not given), replicate column 3 of 3) was 20766, the “Fluorescence competitive binding assay, OBP2 (raw fluorescence reading)” value (SfurOBP2; ligand concentration 6 (unit not given), replicate column 1 of 3) was 19862 and the “Fluorescence competitive binding assay, OBP2 (raw fluorescence reading)” value (SfurOBP2; ligand concentration 6 (unit not given), replicate column 2 of 3) was 19512. For the same compound, the “Fluorescence competitive binding assay, OBP2 (raw fluorescence reading)” value (SfurOBP2; ligand concentration 6 (unit not given), replicate column 3 of 3) was 20651, the “Fluorescence competitive binding assay, OBP2 (raw fluorescence reading)” value (SfurOBP2; ligand concentration 8 (unit not given), replicate column 1 of 3) was 15792 and the “Fluorescence competitive binding assay, OBP2 (raw fluorescence reading)” value (SfurOBP2; ligand concentration 8 (unit not given), replicate column 2 of 3) was 18755. For the same compound, the “Fluorescence competitive binding assay, OBP2 (raw fluorescence reading)” value (SfurOBP2; ligand concentration 8 (unit not given), replicate column 3 of 3) was 20463, the “Fluorescence competitive binding assay, OBP2 (raw fluorescence reading)” value (SfurOBP2; ligand concentration 10 (unit not given), replicate column 1 of 3) was 17421 and the “Fluorescence competitive binding assay, OBP2 (raw fluorescence reading)” value (SfurOBP2; ligand concentration 10 (unit not given), replicate column 2 of 3) was 18400. The “Fluorescence competitive binding assay, OBP2 (raw fluorescence reading)” value (SfurOBP2; ligand concentration 10 (unit not given), replicate column 3 of 3) was 18628, the “Fluorescence competitive binding assay, OBP2 (raw fluorescence reading)” value (SfurOBP2; ligand concentration 12 (unit not given), replicate column 1 of 3) was 16986 and the “Fluorescence competitive binding assay, OBP2 (raw fluorescence reading)” value (SfurOBP2; ligand concentration 12 (unit not given), replicate column 2 of 3) was 26722. The “Fluorescence competitive binding assay, OBP2 (raw fluorescence reading)” value (SfurOBP2; ligand concentration 12 (unit not given), replicate column 3 of 3) was 18513, the “Fluorescence competitive binding assay, OBP2 (raw fluorescence reading)” value (SfurOBP2; ligand concentration 14 (unit not given), replicate column 1 of 3) was 17500 and the “Fluorescence competitive binding assay, OBP2 (raw fluorescence reading)” value (SfurOBP2; ligand concentration 14 (unit not given), replicate column 2 of 3) was 18527. For the same compound, the “Fluorescence competitive binding assay, OBP2 (raw fluorescence reading)” value (SfurOBP2; ligand concentration 14 (unit not given), replicate column 3 of 3) was 15051, the “Fluorescence competitive binding assay, OBP2 (raw fluorescence reading)” value (SfurOBP2; ligand concentration 16 (unit not given), replicate column 1 of 3) was 15983 and the “Fluorescence competitive binding assay, OBP2 (raw fluorescence reading)” value (SfurOBP2; ligand concentration 16 (unit not given), replicate column 2 of 3) was 17600. For the same compound, the “Fluorescence competitive binding assay, OBP2 (raw fluorescence reading)” value (SfurOBP2; ligand concentration 16 (unit not given), replicate column 3 of 3) was 16529, the “Fluorescence competitive binding assay, OBP2 (raw fluorescence reading)” value (SfurOBP2; ligand concentration 18 (unit not given), replicate column 1 of 3) was 18709 and the “Fluorescence competitive binding assay, OBP2 (raw fluorescence reading)” value (SfurOBP2; ligand concentration 18 (unit not given), replicate column 2 of 3) was 20674. The “Fluorescence competitive binding assay, OBP2 (raw fluorescence reading)” value (SfurOBP2; ligand concentration 18 (unit not given), replicate column 3 of 3) was 18464, the “Fluorescence competitive binding assay, OBP2 (raw fluorescence reading)” value (SfurOBP2; ligand concentration 20 (unit not given), replicate column 1 of 3) was 19401 and the “Fluorescence competitive binding assay, OBP2 (raw fluorescence reading)” value (SfurOBP2; ligand concentration 20 (unit not given), replicate column 2 of 3) was 17294. The “Fluorescence competitive binding assay, OBP2 (raw fluorescence reading)” value (SfurOBP2; ligand concentration 20 (unit not given), replicate column 3 of 3) was 16214, the “Fluorescence competitive binding assay, fluorescence intensity” value (SfurOBP1; ligand concentration 2 (μM)) was 7113 and 7279 and 7196 and the “Fluorescence competitive binding assay, fluorescence intensity” value (SfurOBP1; ligand concentration 4 (μM)) was 8035 and 6567 and 6323. The “Fluorescence competitive binding assay, fluorescence intensity” value (SfurOBP1; ligand concentration 6 (μM)) was 7198 and 8786 and 7995, the “Fluorescence competitive binding assay, fluorescence intensity” value (SfurOBP1; ligand concentration 8 (μM)) was 8545 and 7731 and 8071 and the “Fluorescence competitive binding assay, fluorescence intensity” value (SfurOBP1; ligand concentration 10 (μM)) was 6799 and 7181 and 8487. For the same compound, the “Fluorescence competitive binding assay, fluorescence intensity” value (SfurOBP1; ligand concentration 12 (μM)) was 7177 and 8788 and 7408, the “Fluorescence competitive binding assay, fluorescence intensity” value (SfurOBP1; ligand concentration 14 (μM)) was 8520 and 7543 and 7998 and the “Fluorescence competitive binding assay, fluorescence intensity” value (SfurOBP1; ligand concentration 16 (μM)) was 7196 and 9418 and 8283. The “Fluorescence competitive binding assay, fluorescence intensity” value (SfurOBP1; ligand concentration 18 (μM)) was 10247 and 9192 and 8904, the “Fluorescence competitive binding assay, fluorescence intensity” value (SfurOBP1; ligand concentration 20 (μM)) was 10042 and 9521 and 8702 and the IC50 (SfurOBP1; SfurOBP1, protein and 1-NPN both 2.0 µM, competitor 2-20 µM, read-out: IC50) was over 20 µM. The “Fluorescence competitive binding assay, fluorescence intensity” value (SfurOBP3; ligand concentration 2) was 68575 and 67242 and 67984, the “Fluorescence competitive binding assay, fluorescence intensity” value (SfurOBP3; ligand concentration 4) was 64299 and 63882 and 65677 and the “Fluorescence competitive binding assay, fluorescence intensity” value (SfurOBP3; ligand concentration 6) was 63214 and 64264 and 71883. The “Fluorescence competitive binding assay, fluorescence intensity” value (SfurOBP3; ligand concentration 8) was 56987 and 54777 and 62435, the “Fluorescence competitive binding assay, fluorescence intensity” value (SfurOBP3; ligand concentration 10) was 56513 and 56201 and 65155 and the “Fluorescence competitive binding assay, fluorescence intensity” value (SfurOBP3; ligand concentration 12) was 55112 and 58995 and 53063. The “Fluorescence competitive binding assay, fluorescence intensity” value (SfurOBP3; ligand concentration 14) was 51702 and 52973 and 56636, the “Fluorescence competitive binding assay, fluorescence intensity” value (SfurOBP3; ligand concentration 16) was 47206 and 51931 and 50397 and the “Fluorescence competitive binding assay, fluorescence intensity” value (SfurOBP3; ligand concentration 18) was 54350 and 59148 and 62323. The “Fluorescence competitive binding assay, fluorescence intensity” value (SfurOBP3; ligand concentration 20) was 48786 and 51913 and 45060, the IC50 (SfurOBP3; SfurOBP3, protein and 1-NPN both 2.0 µM, competitor 2-20 µM, read-out: IC50) was over 20 µM and the IC50 (SfurOBP11; SfurOBP11, protein and 1-NPN both 2.0 µM, competitor 2-20 µM, read-out: IC50) was over 20 µM. The “Fluorescence intensity, fluorescence competitive binding assay, OBP11” value (“Fluorescence intensity … OBP11” below) (SfurOBP11; ligand concentration 2, replicate 1) was 24279, the “Fluorescence intensity … OBP11” value (SfurOBP11; ligand concentration 2, replicate 2) was 24939 and the “Fluorescence intensity … OBP11” value (SfurOBP11; ligand concentration 2, replicate 3) was 29122. For the same compound, the “Fluorescence intensity … OBP11” value (SfurOBP11; ligand concentration 4, replicate 1) was 25640, the “Fluorescence intensity … OBP11” value (SfurOBP11; ligand concentration 4, replicate 2) was 28958 and the “Fluorescence intensity … OBP11” value (SfurOBP11; ligand concentration 4, replicate 3) was 26788. For the same compound, the “Fluorescence intensity … OBP11” value (SfurOBP11; ligand concentration 6, replicate 1) was 25301, the “Fluorescence intensity … OBP11” value (SfurOBP11; ligand concentration 6, replicate 2) was 29174 and the “Fluorescence intensity … OBP11” value (SfurOBP11; ligand concentration 6, replicate 3) was 26969. The “Fluorescence intensity … OBP11” value (SfurOBP11; ligand concentration 8, replicate 1) was 29061, the “Fluorescence intensity … OBP11” value (SfurOBP11; ligand concentration 8, replicate 2) was 28222 and the “Fluorescence intensity … OBP11” value (SfurOBP11; ligand concentration 8, replicate 3) was 29900. For the same compound, the “Fluorescence intensity … OBP11” value (SfurOBP11; ligand concentration 10, replicate 1) was 27603, the “Fluorescence intensity … OBP11” value (SfurOBP11; ligand concentration 10, replicate 2) was 27689 and the “Fluorescence intensity … OBP11” value (SfurOBP11; ligand concentration 10, replicate 3) was 19569. For the same compound, the “Fluorescence intensity … OBP11” value (SfurOBP11; ligand concentration 12, replicate 1) was 25318, the “Fluorescence intensity … OBP11” value (SfurOBP11; ligand concentration 12, replicate 2) was 27390 and the “Fluorescence intensity … OBP11” value (SfurOBP11; ligand concentration 12, replicate 3) was 28182. The “Fluorescence intensity … OBP11” value (SfurOBP11; ligand concentration 14, replicate 1) was 26354, the “Fluorescence intensity … OBP11” value (SfurOBP11; ligand concentration 14, replicate 2) was 26978 and the “Fluorescence intensity … OBP11” value (SfurOBP11; ligand concentration 14, replicate 3) was 26309. The “Fluorescence intensity … OBP11” value (SfurOBP11; ligand concentration 16, replicate 1) was 23481, the “Fluorescence intensity … OBP11” value (SfurOBP11; ligand concentration 16, replicate 2) was 24311 and the “Fluorescence intensity … OBP11” value (SfurOBP11; ligand concentration 16, replicate 3) was 22273. The “Fluorescence intensity … OBP11” value (SfurOBP11; ligand concentration 18, replicate 1) was 28836, the “Fluorescence intensity … OBP11” value (SfurOBP11; ligand concentration 18, replicate 2) was 32227 and the “Fluorescence intensity … OBP11” value (SfurOBP11; ligand concentration 18, replicate 3) was 28560. For the same compound, the “Fluorescence intensity … OBP11” value (SfurOBP11; ligand concentration 20, replicate 1) was 27143, the “Fluorescence intensity … OBP11” value (SfurOBP11; ligand concentration 20, replicate 2) was 27661 and the “Fluorescence intensity … OBP11” value (SfurOBP11; ligand concentration 20, replicate 3) was 26182. The “behavioral response of S. furcifera (in words)” value (S. furcifera adults) was “significantly repelled”, the “number of insects choosing hexane arm” value (S. furcifera adults; adults) was 15 and the “number of insects choosing volatilies arm” value (S. furcifera adults; adults) was 8. For the same compound, the “number of insects failed (no choice)” value (S. furcifera adults; adults) was 17.
